Tests used:
[1] = test system: subjects with pulmonary hypertension with heart failure and preserved ejection fraction; experiment: TNX-LVO-05 safety review: treatment emergent adverse events; format: in vivo, human
Description: This is the third safety review for Study Protocol No. TNX-LVO-05. This review a) summarizes treatment emergent adverse events (TEAEs), treatment emergent serious adverse events (TESAEs), discontinuations due to TEAEs, and b) provides an overall assessment of safety data.
As of 4 Nov. 2020, 36 subjects have been enrolled in this open-label study with levosimendan and 18 (−5; this number presents change versus previous Safety Review) are still active. Seven subjects (+3) withdrew due to AE, and eight (+2) subjects withdrew consent. One subject was withdrawn by investigator decision.

[2] = test system: Patient 019-002 with PH-HFpEF; experiment: HELP Study 24-hour open label lead-in infusion, rest and exercise right heart catheterization, Patient 019-002; format: in vivo, human
Procedure: FIG. 3: Pulmonary Capillary Wedge Pressure (PCWP) of Patient […] of HELP Study.
During the HELP Study, as described in PCT International Application Publication No. WO 2021/126884, the entire contents of which are incorporated by reference, Patient 019-002 was administered empagliflozin shortly after beginning levosimendan therapy.
Specifically, Patient 019-002 had established PH-HFpEF and was initially enrolled into the HELP Trial. The diagnosis of PH-HFpEF was confirmed by rest and exercise right heart catheterization. […] The PCWP of 35 mmHg at rest increased with exercise to 55 mmHg at baseline. […] Thus, levosimendan produced a 40% fall in resting PCWP and a 33% fall in exercise PCWP. In addition, at baseline the CVP was 18 mmHg and increased to 30 mmHg with exercise. Following the 24 hours of i.v. levosimendan the CVP fell to 12 mmHg at rest and to 21 mmHg with exercise. Thus, levosimendan produced a 33% fall in resting CVP, and a 30% fall in CVP with exercise. Accordingly, the response of Patient 019-002 to levosimendan treatment was typical of other patients in the study in terms of improvements to their hemodynamic profile (FIG. 3).

[3] = in vivo; cited from earlier work
[4] = 24 hours of i.v. levosimendan vs baseline

C[C@@H]1CC(=O)NN=C1c1ccc(NN=C(C#N)C#N)cc1 [levosimendan]
TEAE arthralgia ([1]; of 36 enrolled): 3 subjects
TEAE asthenia ([1]; of 36 enrolled): 3 subjects
TEAE back pain ([1]; of 36 enrolled): 3 subjects
TEAE cardiac failure ([1]; of 36 enrolled): 6 subjects
TEAE dermatitis ([1]; of 36 enrolled): 3 subjects
TEAE device infusion issues ([1]; of 36 enrolled): 3 subjects
TEAE dizziness ([1]; of 36 enrolled): 8 subjects
TEAE dyspnea ([1]; of 36 enrolled): 8 subjects
TEAE fluid overload ([1]; of 36 enrolled): 3 subjects
TEAE gout ([1]; of 36 enrolled): 3 subjects
TEAE headache ([1]; of 36 enrolled): 5 subjects
TEAE hemoptysis ([1]; of 36 enrolled): 3 subjects
TEAE hypokalemia ([1]; of 36 enrolled): 7 subjects
TEAE palpitations ([1]; of 36 enrolled): 4 subjects
TEAE pneumonia ([1]; of 36 enrolled): 3 subjects
TEAE upper respiratory tract infection ([1]; of 36 enrolled): 3 subjects
TEAE urinary tract infection ([1]; of 36 enrolled): 3 subjects
TEAE ventricular extrasystoles ([1]; of 36 enrolled): 3 subjects
TEAE weight increased ([1]; of 36 enrolled): 3 subjects
drug-related TEAE device infusion issue ([1]; of 36 enrolled): 3 subjects
drug-related TEAE headache ([1]; of 36 enrolled): 2 subjects
drug-related TEAE palpitations ([1]; of 36 enrolled): 2 subjects
drug-related TEAE urticaria ([1]; of 36 enrolled): 2 subjects
drug-related TEAE ventricular extrasystoles ([1]; of 36 enrolled): 2 subjects
subjects permanently discontinued study drug due to a TEAE ([1]; of 36 enrolled): 5 subjects
subjects with TEAEs, SOC General disorders and administration site conditions ([1]; of 36 enrolled): 15 subjects
subjects with TEAEs, SOC Nervous system disorders ([1]; of 36 enrolled): 15 subjects
TESAE asthenia ([1]; of 36 enrolled (5.6%)): 2 subjects
TESAE cardiac failure congestive ([1]; of 36 enrolled (5.6%)): 2 subjects
TESAE pneumonia ([1]; of 36 enrolled (8.3%)): 3 subjects
TESAEs, SOC Metabolism and nutrition disorders ([1]; of 36 enrolled (8.3%)): 4 subjects
related TEAEs, SOC Nervous system disorders ([1]; of 36 enrolled (8.3%)): 3 subjects
related TEAEs, SOC Respiratory, thoracic and mediastinal disorders ([1]; of 36 enrolled (8.3%)): 3 subjects
related TEAEs, SOC Skin and subcutaneous tissue disorders ([1]; of 36 enrolled (8.3%)): 3 subjects
related TEAEs, SOC cardiac disorders ([1]; of 36 enrolled (8.3%)): 5 subjects
TESAE cardiac failure ([1]; of 36 enrolled (11.1%)): 4 subjects
related TEAEs, SOC Product issues ([1]; of 36 enrolled (11.4%)): 4 subjects
TESAEs, SOC Infections and Infestations ([1]; of 36 enrolled (22.2%)): 8 subjects
TESAEs, SOC cardiac disorders ([1]; of 36 enrolled (22.2%)): 8 subjects
subjects with TEAE severity moderate ([1]; of 36 enrolled (25.0%)): 9 subjects
subjects with TEAE severity mild ([1]; of 36 enrolled (27.8%)): 10 subjects
subjects with TEAE severity severe ([1]; of 36 enrolled (36.1%)): 13 subjects
subjects with TEAEs considered related to the study drug ([1]; of 36 enrolled (41.7%)): 15 subjects
subjects with TEAEs, SOC Cardiac disorders ([1]; of 36 enrolled (47.2%)): 17 subjects
subjects with TEAEs, SOC Infections and Infestations ([1]; of 36 enrolled (47.2%)): 17 subjects
subjects with serious TEAEs (TESAEs) ([1]; of 36 enrolled (55.6%)): 20 subjects
subjects with TEAEs ([1]; of 36 enrolled (88.9%)): 32 subjects
overall safety assessment ([1]; third safety review, as of 4 Nov. 2020): no safety trends or signals
serious TEAEs considered related ([1]; two of 36 enrolled): 5.6%
fall in CVP with exercise [2, 4]: 30%
fall in exercise PCWP [2, 4]: 33%
fall in resting CVP [2, 4]: 33%
fall in resting PCWP [2, 4]: 40%
CVP at rest ([2]; following 24 hours of i.v. levosimendan (baseline 18 mmHg)): 12 mmHg
CVP with exercise ([2]; following 24 hours of i.v. levosimendan (baseline 30 mmHg)): 21 mmHg
PCWP at rest ([2]; following 24 hours of i.v. levosimendan (baseline 35 mmHg)): 21 mmHg
PCWP with exercise ([2]; following 24 hours of i.v. levosimendan (baseline 55 mmHg)): 37 mmHg
pulmonary capillary wedge pressure (PCWP) after levosimendan administration (FIG. 3) ([2]; single 24-hour open label lead-in infusion): decrease
parent half-life [3]: approximately 1 hour

— patent publication US20250064799A1, “ORAL FORMULATIONS OF LEVOSIMENDAN FOR TREATING PULMONARY HYPERTENSION WITH HEART FAILURE WITH PRESERVED EJECTION FRACTION” (Tenax Therapeutics, Inc., priority 2021, published 2025)
